Molecules are shown by their SMILES.

The target in the first test is human recombinant STK24 (aka MST3) (Homo sapiens, UniProt Q9Y6E0).
Sequence of human recombinant STK24 (aka MST3) (Q9Y6E0 whole entry): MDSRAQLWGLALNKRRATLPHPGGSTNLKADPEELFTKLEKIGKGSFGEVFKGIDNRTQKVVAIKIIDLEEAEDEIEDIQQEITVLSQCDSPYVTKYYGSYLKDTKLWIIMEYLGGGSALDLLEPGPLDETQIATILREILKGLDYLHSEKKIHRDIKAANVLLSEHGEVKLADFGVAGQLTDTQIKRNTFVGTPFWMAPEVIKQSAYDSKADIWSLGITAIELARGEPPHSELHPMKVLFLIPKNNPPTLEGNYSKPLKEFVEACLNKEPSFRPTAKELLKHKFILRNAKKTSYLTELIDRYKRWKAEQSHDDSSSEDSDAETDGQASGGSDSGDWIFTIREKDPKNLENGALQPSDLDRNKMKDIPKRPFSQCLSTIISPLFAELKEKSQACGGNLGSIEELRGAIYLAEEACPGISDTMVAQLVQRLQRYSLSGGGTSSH
Experiment: not given
The note with it: inhibitor.
For the compound `C[C@H](NC(=O)c1c[nH]c2ncc(C3CC3)nc12)C(C)(C)O` [A2], the “MST3 % activity remaining (1µM)” value was determined as 12%.
The same measure, in the same setting: the result for `C[C@H](NC(=O)c1c[nH]c2ncc(-c3ccccc3)nc12)C(C)(C)C` [A3] reads 6%; that for `C[C@H](NC(=O)c1c[nH]c2ncc(-c3ccccc3)nc12)C(C)(C)O` [A4], 9%.
The same measure, in the same setting: the result for `COc1cccc([C@H](C)NC(=O)c2c[nH]c3ncc(-c4ccccc4)nc23)c1` [A5] reads 21%.
Consider `COCCCNC(=O)c1c[nH]c2ncc(C3CC3)nc12` [A6], for which the “MST3 % activity remaining (1µM)” value was found to be 31%.
Still for that read-out and setting: the result for `CS(=O)(=O)N1CCN(C(=O)c2c[nH]c3ncc(C4CC4)nc23)CC1` [A9] reads 92%; that for `CNS(=O)(=O)CCNC(=O)c1c[nH]c2ncc(C3CC3)nc12` [A11], 60%; that for `O=C(c1c[nH]c2ncc(C3CC3)nc12)N1CCOCC1` [A13], 85%.
Still for that read-out and setting: the result for `CN1C(=O)c2sccc2N(C)c2nc(Nc3ccc(S(N)(=O)=O)cc3)ncc21` [XMU-MP-1] reads 15%.

For the next test, the target named is T1, human recombinant STK4 (Homo sapiens, UniProt Q13043).
T1 sequence (Q13043 1-487): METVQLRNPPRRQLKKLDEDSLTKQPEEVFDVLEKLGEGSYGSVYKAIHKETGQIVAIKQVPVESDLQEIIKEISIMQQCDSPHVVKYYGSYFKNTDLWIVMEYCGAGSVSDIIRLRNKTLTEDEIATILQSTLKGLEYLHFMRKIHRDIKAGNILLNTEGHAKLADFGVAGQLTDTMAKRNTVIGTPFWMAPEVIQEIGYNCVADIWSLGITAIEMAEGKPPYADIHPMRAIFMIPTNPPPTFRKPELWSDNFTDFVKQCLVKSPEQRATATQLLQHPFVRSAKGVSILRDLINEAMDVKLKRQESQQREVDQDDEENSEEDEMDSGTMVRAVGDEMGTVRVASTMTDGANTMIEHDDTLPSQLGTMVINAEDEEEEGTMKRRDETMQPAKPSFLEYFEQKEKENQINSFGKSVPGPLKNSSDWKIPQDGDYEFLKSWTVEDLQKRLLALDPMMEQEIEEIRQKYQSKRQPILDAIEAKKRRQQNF
Experiment: not given
The conditions noted are these: inhibitor.
Consider `C[C@H](NC(=O)c1c[nH]c2ncc(C3CC3)nc12)C(C)(C)O` [A2], for which the “STK4 % activity remaining (1µM)” value is given as 7%.
For the compound `C[C@H](NC(=O)c1c[nH]c2ncc(-c3ccccc3)nc12)C(C)(C)C` [A3], the “STK4 % activity remaining (1µM)” value is reported as 2%.
The same measure, in the same setting: the same measure for `C[C@H](NC(=O)c1c[nH]c2ncc(-c3ccccc3)nc12)C(C)(C)O` [A4]: 4%.
The same measure, in the same setting: the result for `COc1cccc([C@H](C)NC(=O)c2c[nH]c3ncc(-c4ccccc4)nc23)c1` [A5] reads 39%; that for `COCCCNC(=O)c1c[nH]c2ncc(C3CC3)nc12` [A6], 26%.
Same read-out and setting: the same measure for `CS(=O)(=O)N1CCN(C(=O)c2c[nH]c3ncc(C4CC4)nc23)CC1` [A9]: 98%; for `CNS(=O)(=O)CCNC(=O)c1c[nH]c2ncc(C3CC3)nc12` [A11]: 36%; for `O=C(c1c[nH]c2ncc(C3CC3)nc12)N1CCOCC1` [A13]: 84%.
As to `CN1C(=O)c2sccc2N(C)c2nc(Nc3ccc(S(N)(=O)=O)cc3)ncc21` [XMU-MP-1], the “STK4 % activity remaining (1µM)” value is 14%.

The target of a further test is human recombinant STK26 (aka MST4) (Homo sapiens, UniProt Q9P289).
Sequence of human recombinant STK26 (aka MST4) (Q9P289 2-416): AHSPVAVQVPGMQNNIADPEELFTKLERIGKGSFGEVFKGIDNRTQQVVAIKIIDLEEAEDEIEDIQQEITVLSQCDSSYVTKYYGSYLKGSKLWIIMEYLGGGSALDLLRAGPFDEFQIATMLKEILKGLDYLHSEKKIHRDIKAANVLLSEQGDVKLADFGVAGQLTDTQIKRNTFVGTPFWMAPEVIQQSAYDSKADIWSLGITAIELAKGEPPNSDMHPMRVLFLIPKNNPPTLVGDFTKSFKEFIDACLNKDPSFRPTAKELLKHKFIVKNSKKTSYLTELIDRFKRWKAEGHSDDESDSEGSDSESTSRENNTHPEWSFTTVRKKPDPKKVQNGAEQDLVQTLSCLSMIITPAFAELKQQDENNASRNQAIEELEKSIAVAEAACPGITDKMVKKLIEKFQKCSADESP
Experiment: not given
The conditions noted are these: inhibitor.
With `C[C@H](NC(=O)c1c[nH]c2ncc(C3CC3)nc12)C(C)(C)O` [A2], the “MST4 % activity remaining (1µM)” value is given as 54%.
The same measure, in the same setting: the result for `C[C@H](NC(=O)c1c[nH]c2ncc(-c3ccccc3)nc12)C(C)(C)C` [A3] reads 27%; that for `C[C@H](NC(=O)c1c[nH]c2ncc(-c3ccccc3)nc12)C(C)(C)O` [A4], 51%.
The same measure, in the same setting: the result for `COc1cccc([C@H](C)NC(=O)c2c[nH]c3ncc(-c4ccccc4)nc23)c1` [A5] reads 74%; that for `COCCCNC(=O)c1c[nH]c2ncc(C3CC3)nc12` [A6], 74%.
Same read-out and setting: the result for `CS(=O)(=O)N1CCN(C(=O)c2c[nH]c3ncc(C4CC4)nc23)CC1` [A9] reads 106%.
Regarding `CNS(=O)(=O)CCNC(=O)c1c[nH]c2ncc(C3CC3)nc12` [A11], the “MST4 % activity remaining (1µM)” value amounted to 71%.
The same measure, in the same setting: the same measure for `O=C(c1c[nH]c2ncc(C3CC3)nc12)N1CCOCC1` [A13]: 82%; for `CN1C(=O)c2sccc2N(C)c2nc(Nc3ccc(S(N)(=O)=O)cc3)ncc21` [XMU-MP-1]: 40%.

A further test deals with T2, human recombinant STK3 (MST2) (Homo sapiens, UniProt Q13188).
T2 sequence (Q13188 1-491 limits assumed): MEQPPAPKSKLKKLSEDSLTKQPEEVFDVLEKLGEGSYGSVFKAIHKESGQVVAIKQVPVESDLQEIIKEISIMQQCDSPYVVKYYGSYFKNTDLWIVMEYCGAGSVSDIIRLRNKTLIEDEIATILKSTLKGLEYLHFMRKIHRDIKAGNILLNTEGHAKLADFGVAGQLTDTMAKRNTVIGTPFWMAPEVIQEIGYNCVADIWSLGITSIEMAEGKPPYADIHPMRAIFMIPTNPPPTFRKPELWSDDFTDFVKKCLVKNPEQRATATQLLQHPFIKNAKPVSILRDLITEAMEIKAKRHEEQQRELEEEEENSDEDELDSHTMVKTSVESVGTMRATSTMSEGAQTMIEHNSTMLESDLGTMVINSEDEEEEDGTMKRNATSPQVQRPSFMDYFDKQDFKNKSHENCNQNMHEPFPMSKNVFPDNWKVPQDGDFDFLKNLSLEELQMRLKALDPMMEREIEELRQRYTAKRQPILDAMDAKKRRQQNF
Experiment: not given
The conditions noted are these: inhibitor.
Take `C[C@H](NC(=O)c1c[nH]c2ncc(C3CC3)nc12)C(C)(C)O` [A2]: the “STK3 % activity remaining (1µM)” value is recorded as 15%.
The same measure, in the same setting: the same measure for `COCCCNC(=O)c1c[nH]c2ncc(C3CC3)nc12` [A6]: 44%; for `CS(=O)(=O)N1CCN(C(=O)c2c[nH]c3ncc(C4CC4)nc23)CC1` [A9]: 82%.
Turning to `CNS(=O)(=O)CCNC(=O)c1c[nH]c2ncc(C3CC3)nc12` [A11], the “STK3 % activity remaining (1µM)” value came to 89%.
Consider `O=C(c1c[nH]c2ncc(C3CC3)nc12)N1CCOCC1` [A13], for which the “STK3 % activity remaining (1µM)” value is on record as 138%.

The next test has as its target T3, NanoLuc-STK3 (STK3-NanoBRET) (Homo sapiens, UniProt Q13188).
T3 sequence (Q13188 1-491): T2 sequence (Q13188 1-491 limits assumed)
The test is described as follows: NanoBRET tracer displacement in live cells. In kind it is cell-based.
Settings: not given
A word on the IC50: it is the concentration that inhibits the measured activity by half. In the case of `C[C@H](NC(=O)c1c[nH]c2ncc(C3CC3)nc12)C(C)(C)O` [A2, UNC-BE4-018], the 50% inhibitory concentration (IC50) was 9200 nM.
Consider `C[C@H](NC(=O)c1c[nH]c2ncc(-c3ccccc3)nc12)C(C)(C)C` [A3, UNC-BE4-035], for which the IC50 was 2000 nM.
`C[C@H](NC(=O)c1c[nH]c2ncc(-c3ccccc3)nc12)C(C)(C)O` [A4, UNC-BE4-36-1] showed an IC50 of 2100 nM.
The same measure, in the same setting: the result for `COCCCNC(=O)c1c[nH]c2ncc(C3CC3)nc12` [A6, UNC-BE4-032] reads above 10000 nM.
Compound `CS(=O)(=O)N1CCN(C(=O)c2c[nH]c3ncc(C4CC4)nc23)CC1` [A9, UNC-BE4-031] had an IC50 above 10000 nM.
Still for that read-out and setting: the same measure for `CNS(=O)(=O)CCNC(=O)c1c[nH]c2ncc(C3CC3)nc12` [A11, UNC-BE4-033]: above 10000 nM.
The same measure, in the same setting: the result for `O=C(c1c[nH]c2ncc(C3CC3)nc12)N1CCOCC1` [A13, UNC-BE4-036] reads above 10000 nM; that for `CN(C)c1ncnc2[nH]cc(-c3cccc(C#N)c3)c12` [B1, UNC-SOB-5-16], 4300 nM.

The test is the same for the next values; noted with them: read-out: NB IC50; NanoBRET Tracer K10 at […], live HEK-293 cells.
For `COc1cccc([C@H](C)NC(=O)c2c[nH]c3ncc(-c4ccccc4)nc23)c1` [A5, UNC-BE4-040-1], the IC50 was above 10000 nM.

The target in a further test is T2, human recombinant STK3 (MST2). Put plainly: radiometric kinase assay. In kind it is biochemical.
Settings: not given
`C[C@H](NC(=O)c1c[nH]c2ncc(C3CC3)nc12)C(C)(C)O` [A2, UNC-BE4-018]: the IC50 is 195 nM.
On the same count and under the same terms, the result for `C[C@H](NC(=O)c1c[nH]c2ncc(-c3ccccc3)nc12)C(C)(C)C` [A3, UNC-BE4-035] reads 7 nM.
As for `C[C@H](NC(=O)c1c[nH]c2ncc(-c3ccccc3)nc12)C(C)(C)O` [A4, UNC-BE4-36-1], the IC50 is 124 nM.
Same read-out and setting: the same measure for `CN(C)c1ncnc2[nH]cc(-c3cccc(C#N)c3)c12` [B1, UNC-SOB-5-16]: 113 nM.

Still in this test, the particulars now being: ATP at Km; myelin basic protein substrate.
Regarding `COc1cccc([C@H](C)NC(=O)c2c[nH]c3ncc(-c4ccccc4)nc23)c1` [A5, UNC-BE4-040-1], the IC50 turned out to be 391 nM.

The values above are taken from publication doi:10.1101/2021.02.21.432137v1 (biorxiv, 2021).
